pIC50: −log10 of the molar value. The source made the active and inactive calls. The calls are words filed in the database; no cut-off is given here.
Columns and labels:
Rattus norvegicus [1] = experiment: Cocaine discrimination in ip dosed CD Albino rat; assay type: functional
Rattus norvegicus [2] = experiment: Drug discrimination effect in CD Albino rat assessed as percent of rat choosing cocaine lever at 1 mg/kg, ip; assay type: functional; settings: route intraperitoneal
Rattus norvegicus [3] = experiment: Drug discrimination effect in CD Albino rat assessed as percent of rat choosing cocaine lever at 1.7 mg/kg, ip; assay type: functional; settings: route intraperitoneal
Rattus norvegicus [4] = experiment: Drug discrimination effect in CD Albino rat assessed as percent of rat choosing cocaine lever at 3 mg/kg, ip; assay type: functional; settings: route intraperitoneal
Rattus norvegicus [5] = experiment: Drug discrimination effect in CD Albino rat assessed as percent of rat choosing cocaine lever at 5.6 mg/kg, ip; assay type: functional; settings: route intraperitoneal
Rattus norvegicus [6] = experiment: Drug discrimination effect in CD Albino rat assessed as percent of rat choosing cocaine lever at 10 mg/kg, ip; assay type: functional; settings: route intraperitoneal
Mus musculus [7] = experiment: Activity in CD1 mouse assessed as hyperactivity at 10 mg/kg, ip after 4 hrs; assay type: functional, organism-based; parameters: dose 10 mg/kg
Mus musculus [8] = experiment: Activity in CD1 mouse assessed as stereotypy at 100 mg/kg, ip after 4 hrs; assay type: functional, organism-based; parameters: dose 100 mg/kg
Mus musculus [9] = experiment: Activity in CD1 mouse assessed as circling at 100 mg/kg, ip after 4 hrs; assay type: functional, organism-based; parameters: dose 100 mg/kg
Mus musculus [10] = experiment: Activity in CD1 mouse assessed as stimulation at 100 mg/kg, ip after 4 hrs; assay type: functional, organism-based; parameters: dose 100 mg/kg
[11] = molecular target: Sodium-dependent dopamine transporter (Homo sapiens, UniProt Q01959); experiment: Displacement of [3H]WIN-35428 from DAT
Sodium-dependent dopamine transporter, sequence (Q01959 whole entry): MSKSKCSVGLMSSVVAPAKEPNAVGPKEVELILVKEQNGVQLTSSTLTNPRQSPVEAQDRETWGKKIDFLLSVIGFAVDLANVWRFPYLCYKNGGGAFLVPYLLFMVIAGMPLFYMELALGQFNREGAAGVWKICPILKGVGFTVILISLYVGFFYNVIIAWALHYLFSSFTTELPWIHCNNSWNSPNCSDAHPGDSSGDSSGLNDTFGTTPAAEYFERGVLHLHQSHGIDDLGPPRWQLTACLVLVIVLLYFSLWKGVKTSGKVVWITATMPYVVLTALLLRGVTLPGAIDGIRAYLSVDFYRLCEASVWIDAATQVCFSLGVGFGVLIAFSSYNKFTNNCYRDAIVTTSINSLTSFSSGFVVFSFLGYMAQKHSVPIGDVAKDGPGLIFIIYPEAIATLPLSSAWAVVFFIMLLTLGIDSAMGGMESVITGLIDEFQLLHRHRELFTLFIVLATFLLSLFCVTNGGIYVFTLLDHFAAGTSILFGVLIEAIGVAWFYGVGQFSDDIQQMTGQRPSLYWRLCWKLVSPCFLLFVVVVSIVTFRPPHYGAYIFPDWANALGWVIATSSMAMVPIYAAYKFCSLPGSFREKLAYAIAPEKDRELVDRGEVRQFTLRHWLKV

Mus musculus [12] = experiment: Locomotor activity in ip dosed CD1 mouse in peak hour; assay type: functional
Mus musculus [13] = experiment: Locomotor activity in CD1 mouse assessed as stimulation at 3 mg/kg, ip after 1 hr relative to control; assay type: functional; settings: route intraperitoneal
Mus musculus [14] = experiment: Locomotor activity in CD1 mouse assessed as stimulation at 3 mg/kg, ip after 2 hrs relative to control; assay type: functional; settings: route intraperitoneal
Mus musculus [15] = experiment: Locomotor activity in CD1 mouse assessed as stimulation at 3 mg/kg, ip after 3 hrs relative to control; assay type: functional; settings: route intraperitoneal
Mus musculus [16] = experiment: Locomotor activity in CD1 mouse assessed as stimulation at 3 mg/kg, ip after 4 hrs relative to control; assay type: functional; settings: route intraperitoneal
Mus musculus [17] = experiment: Locomotor activity in CD1 mouse assessed as stimulation at 10 mg/kg, ip after 1 hr relative to control; assay type: functional; settings: route intraperitoneal
Mus musculus [18] = experiment: Locomotor activity in CD1 mouse assessed as stimulation at 10 mg/kg, ip after 2 hrs relative to control; assay type: functional; settings: route intraperitoneal
Mus musculus [19] = experiment: Locomotor activity in CD1 mouse assessed as stimulation at 10 mg/kg, ip after 3 hrs relative to control; assay type: functional; settings: route intraperitoneal
Mus musculus [20] = experiment: Locomotor activity in CD1 mouse assessed as stimulation at 10 mg/kg, ip after 4 hrs relative to control; assay type: functional; settings: route intraperitoneal
Mus musculus [21] = experiment: Locomotor activity in CD1 mouse assessed as stimulation at 30 mg/kg, ip after 1 hr relative to control; assay type: functional; settings: route intraperitoneal
Mus musculus [22] = experiment: Locomotor activity in CD1 mouse assessed as stimulation at 30 mg/kg, ip after 2 hrs relative to control; assay type: functional; settings: route intraperitoneal
Mus musculus [23] = experiment: Locomotor activity in CD1 mouse assessed as stimulation at 30 mg/kg, ip after 3 hrs relative to control; assay type: functional; settings: route intraperitoneal
Mus musculus [24] = experiment: Locomotor activity in CD1 mouse assessed as stimulation at 30 mg/kg, ip after 4 hrs relative to control; assay type: functional; settings: route intraperitoneal
Mus musculus [25] = experiment: Locomotor activity in CD1 mouse assessed as stimulation at 100 mg/kg, ip after 1 hr relative to control; assay type: functional; settings: route intraperitoneal
Mus musculus [26] = experiment: Locomotor activity in CD1 mouse assessed as stimulation at 100 mg/kg, ip after 2 hrs relative to control; assay type: functional; settings: route intraperitoneal
Mus musculus [27] = experiment: Locomotor activity in CD1 mouse assessed as stimulation at 100 mg/kg, ip after 3 hrs relative to control; assay type: functional; settings: route intraperitoneal
Mus musculus [28] = experiment: Locomotor activity in CD1 mouse assessed as stimulation at 100 mg/kg, ip after 4 hrs relative to control; assay type: functional; settings: route intraperitoneal

`COC(=O)[C@@H]1C2CCC(C[C@H]1c1ccc(Cl)cc1)N2C` (stereo partly drawn) was tested, and the ED50 (Rattus norvegicus [1]) was 2.55 mg/kg, the Activity (Rattus norvegicus [2]) was 25% and the Activity (Rattus norvegicus [3]) was 25%. The Activity (Rattus norvegicus [4]) was 67%, the Activity (Rattus norvegicus [5]) was 67% and the Activity (Rattus norvegicus [6]) was 100%. For the same molecule, the Activity (Mus musculus [7]) was “Active”, the Activity (Mus musculus [8]) was “Active” and the Activity (Mus musculus [9]) was “Active”. The Activity (Mus musculus [10]) was “Active”, the pIC50 [11] was 8.51 and the ED50 (Mus musculus [12]) was 9.1 mg/kg. It also gave an Activity (Mus musculus [13]) of 49%, an Activity (Mus musculus [14]) of 64% and an Activity (Mus musculus [15]) of 135%. It also gave an Activity (Mus musculus [16]) of 38%, an Activity (Mus musculus [17]) of 340% and an Activity (Mus musculus [18]) of 322%. For the same molecule, the Activity (Mus musculus [19]) was 373%, the Activity (Mus musculus [20]) was 11% and the Activity (Mus musculus [21]) was 868%. It also gave an Activity (Mus musculus [22]) of 1127%, an Activity (Mus musculus [23]) of 1002% and an Activity (Mus musculus [24]) of 158%. It also gave an Activity (Mus musculus [25]) of 487%, an Activity (Mus musculus [26]) of 217% and an Activity (Mus musculus [27]) of 1065%. The Activity (Mus musculus [28]) was 598%.

Source: ChEMBL document CHEMBL1149262, “Monoamine transporter binding, locomotor activity, and drug discrimination properties of 3-(4-substituted-phenyl)tropane-2-carboxylic acid methyl ester isomers” (J Med Chem, 2004)
